# Test results: patent US20100247688A1 (priority 2007, published 2010)
# Entries after “also recorded” stand apart in the source; their conditions may differ. Like-named read-outs stand apart in the source and are kept apart here.
# What was measured:
# in vivo = conditions: rat
# Protocol: AC-92 was prepared in DMSO and diluted in sterile phosphate buffered saline (final DMSO concentration 1.0%). […] Animals were sacrificed at 3 and 6 hours after dosing via lethal narcosis. Blood was sampled via cardiac puncture. Serum was prepared by allowing whole blood to stand at 4° C. for 60 min; plasma was prepared using heparin as the anti-coagulant. CSF was collected via the foramen magnum immediately after sacrifice. Brain material was collected by opening of the skull and simple excision of the right cortex. Samples were snap frozen using liquid nitrogen immediately after collection. All procedures were conducted in conformity with applicable German and EU laws on animal experimentation and the study was approved by a government appointed ethics committee.
# To determine the extent of central exposure, bioavailability studies were undertaken.
# hAPP Tg mice (APP751S/L) = test: Morris Water Maze in hAPP Tg mice; type: in vivo, mouse; conditions: for probe trial: crossings over the former target position: 1 mg/kg, versus Tween 80 vehicle group; for performance in Morris Water Maze: other concentration of AC-91 (not 1 or 20 mg/kg) or Compounds B
# Protocol: Therefore, mice were treated for 33 days and in the end of the treatment period behavior was evaluated in the Morris Water Maze and additionally a Object Recognition Task.
# Female Tg and nTg mice with a C57BL/6×DBA background and an age of 7 months (±2 week) were randomly assigned to treatment groups 1 to 9 (n=20 for groups 3 to 7, n=15 for groups 1, 2, 8 and 9). […] All animals which were used for the present study had dark eyes and were likely to perceive the landmarks outside the MWM pool. However, it had to be excluded that seeing abilities of an animal were poor, which was controlled in the visible platform training, the so called pretest, before treatment start for all animals including reserves enclosed to the study. In case a seeing handicap for a specific animal would have been affirmed, the mouse would have been excluded from the study.
# Compounds or vehicle were administered via oral gavage in a daily volume of 10 ml/kg/b.w. for 33 days.
# The Morris Water Maze task was conducted in a black circular pool of a diameter of 100 cm. Tap water was filled in with a temperature of 22±1° C. and the pool was virtually divided into four sectors. A transparent platform (8 cm diameter) was placed about 0.5 cm beneath the water surface. During the whole test session, except the pretest, the platform was located in the southwest quadrant of the pool.
# One day before the 4 days lasting training session animals had to perform a so called “pre-test” (two 60 sec lasting trials) to ensure that the seeing abilities of each animal were normal. Only animals that fulfilled this task were enclosed to the MWM testing.
# In the MWM task, each mouse had to perform three trials on four consecutive days. A single trial lasted for a maximum of one minute. During this time, the mouse had the chance to find the hidden, diaphanous target. If the animal could not find a “way” out of the water, the investigator guided to or placed the mouse on the platform. After each trial mice were allowed to rest on the platform for 10-15 sec.
# During this time, the mice had the possibility to orientate in the surrounding. Investigations took place under dimmed light conditions, to prevent the tracking system from negative influences (Kaminski; PCS, Biomedical Research Systems). On the walls surrounding the pool, posters with black, bold geometric symbols (e.g. a circle and a square) were fixed which the mice could use the symbols as landmarks for their orientation.
# One swimming group per trial consisted of five to six mice, so that an intertrial time of about five to ten minutes was ensured. For the quantification of escape latency (the time [second]−the mouse needed to find the hidden platform and therefore to escape from the water), of pathway (the length of the trajectory [meter] to reach the target) and of the abidance in the goal quadrant a computerized tracking system was used. The computer was connected to a camera placed above the centre of the pool. The camera detected the signal of the light emitting diode (LED), which was fixed with a little hairgrip on the mouse's tail.
# Twenty-four hours after the last trial on day 4 the mice had to fulfil a so-called probe trial. At this time, the platform was removed from the pool and during the one-minute probe trial; the experimenter counted the number of crossings over the former target position. Additionally the abidance in this quadrant as well as the three other quadrants was calculated. Through out this trial a mouse could not get any, howsoever natured, clue from the platform.
# APPPS1 transgenic mice = test: Plaque load, plaque volume and area in APPPS1 transgenic model for cerebral amyloidosis; type: in vivo, mouse; conditions: for increase of amyloid load as % of that expected with normal progression of the model: AC-92 after 3 months, AC-91 at month 5; for plaque volume and area smaller than vehicle-treated controls: APPPS1 mice
# Protocol: The transgenic model and corresponding […] analysis of brain sections was provided by Prof. Mathias Jucker, Department of Cellular Neurology, Hertie-Institute for Clinical Brain Research University of Tübingen, Otfried-Müller Strasse 27, D-72076 Tübingen, Germany. APPPS1 transgenic mice express both KM670/671NL mutated human APP and L166P mutated human PS1 under the Thy-1 promoter element (Radde et al., 2005). They were treated with the compounds from the age of 126 days after birth (DAB) to 158 DAB. […] On completion of the dosing period, animals were sacrificed by lethal narcosis followed by collection of blood by cardiac puncture and recovery of brain material for sectioning and extraction of drug and relevant peptides. […] Brains were removed and postfixed at 4° C. in 4% PFA, dehydrated in 30% sucrose, and frozen. Serial coronal serial 40 μm sections were cut with a microtome and collected in cryoprotectant (30% glycerol, 45% ethylene glycol in PBS) and stored at −20° C. until use.
# Free-floating sections were processed for immunohistochemistry as described elsewhere (Stalder et al., 2005). Briefly, sections were washed in TBS and blocked with 3% goat or donkey serum (Vector Laboratories Inc., Burlingame, Calif.) in 0.3% Triton-X-100 (Fisher, Fair Lawn, N.J.). The sections were incubated overnight with primary antibodies at 4° C. in 2% serum and 0.3% Triton-X-100, washed three times with TBS and incubated for 3 hours with biotin-conjugated secondary antibodies. After repeated TBS washing, sections were stained by complexing with SG blue (Vectastain ABC elite kit; Vector Laboratories). Sections were mounted on precleaned glass microscope slides (Superfrost® Plus; Langenbrinck, Teningen, Germany), dehydrated with an alcohol series, cleared in xylene and coverslipped in a xylene soluble mounting medium (Pertex®, medite GmbH, Burgdorf, Germany). Amyloid load was estimated on every 12th section throughout the entire neocortex.
# In vivo experiments were performed using a very aggressive double transgenic mouse model for cerebral amyloidosis (Radde et al., 2006). APPPS1 transgenic mice expressing both KM670/671NL mutated human APP and L166P mutated human PS1 under the Thy-1 promoter element (Radde et al., 2005) were treated with the compounds from the age of 126 days after birth (DAB) to 158 DAB. Mice were treated as described in A3. above. On completion of the dosing period, samples were taken from the animals and snap frozen using liquid nitrogen as reported herein previously (see Section A3. above).
# In the model, plaque load in the brain is known to increase roughly exponentially with age (Radde et al., 2005). […] These conditions should be suitable to provide insight, whether initial formation of plaques or downstream processes reversing existing plaque loads are involved in corresponding drug effects.
# [1] = ACI-91 and ACI-92 levels in plasma, CSF and brain homogenates of transgenic mice; type: in vivo, mouse; conditions: for concentration in brain as % of plasma concentration / Kp at 33 days: 100 mg/kg ACI-91 or 50 mg/kg ACI-92, 33 days; for Kp at 33 days: mouse, brain homogenate, oral, read-out: concentration in brain as % of plasma concentration
# Protocol: Determination of ACI-91 and ACI-92 in mouse plasma, CSF and brain homogenate samples was done by HPLC-MS/MS by Quality Assistance SA, Technoparc de Thudinie 2, B-6536 Donstiennes, Belgium.
# The amounts of ACI-91 and of ACI-92 in plasma, CSF and in brain homogenates is determined after treatment of hAPP single transgenic mice (JSW, Graz) and hAPP-PS1 double-transgenic mice (Synovo, Tübingen), respectively, for 33 days with doses of 1, 5, 20 and 100 mg/kg of ACI-91 and 50 mg/kg ACI-92 and doses of 100 mg/kg of ACI-91 and 50 mg/kg ACI-92, respectively.
# [2] = type: in vivo; conditions: daily oral gavage, 33 days; AC-91 in four different concentrations
# From the text: In total 171 female hAPP Tg and nTg mice with an age of 6.5 months at treatment start were enclosed to study.
structure (smiles),measurement,setting,value
O=C1Nc2cccnc2N(C(=O)CN2CCNCC2)c2ccccc21 [des-methyl-AC-91],detection in CSF,"in vivo; po, 50 mg/kg",No AC-91 or dm-AC-91 was detected
"CN1CCN(CC(=O)N2c3ccccc3C(=O)Nc3cccnc32)CC1 [AC-91, pirenzepine]",half-life,"in vivo; male, Lewis, po",~12 h
same,escape latency in Morris Water Maze,"hAPP Tg mice (APP751S/L); 1 mg/kg daily oral, 33 days",reduced relatively to the historic group
same,probe trial: crossings over the former target position,hAPP Tg mice (APP751S/L),significantly (p<0.05) more often
same,probe trial: crossings over the former target position,hAPP Tg mice (APP751S/L); listed as formula II,significantly more often
same,escape latency in Morris Water Maze,"hAPP Tg mice (APP751S/L); 20 mg/kg daily oral, 33 days",comparable escape latency to the ntg vehicle treated mice; also recorded: reduced relatively to the historic group
same,escape latency in Morris Water Maze,"hAPP Tg mice (APP751S/L); 20 mg/kg daily oral, 33 days, listed as formula II",comparable escape latency to the non transgenic vehicle treated mice
same,memory performance,hAPP Tg mice (APP751S/L); dose escalation to 100 mg/kg,didn't improve memory performance
same,performing the Morris Water Maze task compared to the historic group,"hAPP Tg mice (APP751S/L); hAPP Tg mice, 33 days",led to an improvement
same,performance in Morris Water Maze,hAPP Tg mice (APP751S/L),weak performance similar to that observed in the historic tg group
"O=C1Nc2cccnc2Nc2ccccc21 [AC-92, LS-75]",Kp,"in vivo; male, Lewis, ip, 50 mg/kg",~0.25
same,concentration at 3 h,"in vivo; male, Lewis, po, 50 mg/kg",~0.02 µM
same,concentration at 6 h,"in vivo; male, Lewis, po, 50 mg/kg",~0.075 µM
same,enrichment in the brain,in vivo; po,enriched in the brain to a certain extent
same,increase of amyloid load as % of that expected with normal progression of the model,APPPS1 transgenic mice,55%
same,increase of amyloid load as % of that expected with normal progression of the model,APPPS1 transgenic mice; listed as formula III,about 60%
same,plaque volume and area smaller than vehicle-treated controls,APPPS1 transgenic mice; month 2-3,about 26%
same,plaque volume and area smaller than vehicle-treated controls,APPPS1 transgenic mice; month 4-5,about 26%
same,β-amyloid plaque load,"APPPS1 transgenic mice; daily p.o. 50 mg/kg AC-92 or 100 mg/kg AC-91 for one month, between months 1 and 5 after birth",substantial reductions
same,amyloid load,"APPPS1 transgenic mice; treated animals after 3 months, 50 mg/kg daily p.o.",0.61%
same,concentration in brain as % of plasma concentration,[1]; 4 months old double transgenic mice,about 5%
same,concentration in CSF as % of plasma concentration,"[1]; 4 months old double transgenic mice, listed as ACI92",20%
same,concentration in brain as % of plasma concentration,[1]; 8 months old single transgenic mice,11%
same,Kp at 33 days,"[1]; hAPP single transgenic, 8 months old single transgenic mice",~0.11
same,Kp at 33 days,"[1]; hAPP-PS1 double-transgenic, 4 months old double transgenic mice",~0.05
same,Morris Water Maze / probe trial versus Tween 80 vehicle mice,hAPP Tg mice (APP751S/L); AC-92 treated mice,no difference to the Tween 80 mice
same,performance in Morris Water Maze,hAPP Tg mice (APP751S/L),weak performance similar to that observed in the historic tg group
same,tolerability of the treatment,[2],well tolerated
